Assay results from the supplement of paper PMC9663587.

Assays:
Experiment in all cases: GRmax, 72 h; higher = less effect;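 note: breast cell lines in 384-well plates, nine doses across a 10^4 range, Dye Drop imaging of viable cells vs DMSO and time-zero plates, GR 0 means no net growth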
SUM44PE = test system: SUM44PE
MDAMB361 = test system: MDAMB361
UACC812 = test system: UACC812
MDAMB468 = test system: MDAMB468
MCF7 = test system: MCF7
HTERT_HME1 = test system: HTERT_HME1
184A1 = test system: 184A1
BT474 = test system: BT474
MCF12A = test system: MCF12A
SUM229PE = test system: SUM229PE
T47D = test system: T47D
HCC1954 = test system: HCC1954
PDX1328 = test system: PDX1328

Row | SMILES | GRmax, 72 h (SUM44PE) [GR] | GRmax, 72 h (MDAMB361) [GR] | GRmax, 72 h (UACC812) [GR] | GRmax, 72 h (MDAMB468) [GR] | GRmax, 72 h (MCF7) [GR] | GRmax, 72 h (HTERT_HME1) [GR] | GRmax, 72 h (184A1) [GR] | GRmax, 72 h (BT474) [GR] | GRmax, 72 h (MCF12A) [GR] | GRmax, 72 h (SUM229PE) [GR] | GRmax, 72 h (T47D) [GR] | GRmax, 72 h (HCC1954) [GR] | GRmax, 72 h (PDX1328) [GR]
1 | COc1ccc2c(c1)[C@]1(C[C@H]1c1ccc3c(/C=C/c4ccc(CN5C[C@@H](C)O[C@@H](C)C5)cc4)n[nH]c3c1)C(=O)N2 | -0.249 | 0.272 | -0.135 | -0.38 | -0.0551 | -0.106 | 0.0075 | 0.18 | 0.0038 | -0.0183 | -0.0071 | -0.209 | -0.0338
2 | COc1cccc(OCCCN)c1-c1cc(Nc2cnc(C#N)cn2)n[nH]1 | -0.79 | -0.386 | 0.528 | 0.6 | 0.211 | -0.0816 | 0.529 | 0.715 | -0.167 | -0.112 | 0.428 | -0.312 | 0.111
3 | CC(=O)Nc1cccc(-n2c(=O)n(C3CC3)c(=O)c3c(Nc4ccc(I)cc4F)n(C)c(=O)c(C)c32)c1 (max 1 µM) | 0.56 | 0.502 | -0.119 | 0.407 | 0.558 | 0.203 | 0.187 | 1.36 | -0.0287 | 0.172 | 0.58 | 0.229 | 0.661
4 | CCc1cnn2c(NCc3ccc[n+]([O-])c3)cc(N3CCCC[C@H]3CCO)nc12 (max 1 µM) | -0.925 | -0.275 | -0.942 | -0.413 | -0.249 | -0.285 | -0.33 | -0.762 | -0.327 | -0.21 | -0.211 | -0.464 | -0.577
5 | CC(=O)c1c(C)c2cnc(Nc3ccc(N4CCNCC4)cn3)nc2n(C2CCCC2)c1=O (max 3.162 µM) | 0.437 | 0.148 | -0.142 | 1.05 | 0.254 | 0.257 | 0.128 | 0.519 | 0.684 | 0.4 | 0.117 | 0.526 | 0.361
6 | CCc1cncnc1N1CCN(Cc2nc3ccc(C(F)(F)F)cc3[nH]2)CC1 (max 10 µM) | 0.292 | 0.192 | -0.22 | 0.0813 | 0.558 | 0.455 | 1.02 | 0.508 | 0.964 | 0.743 | 0.366 | 0.835 | 0.619
7 | CCCCOc1c(C(=O)c2c(F)cc(C)cc2F)c[nH]c2nncc1-2 (max 10 µM) | -0.234 | 0.216 | -0.394 | -0.112 | 0.072 | -0.0276 | -0.0413 | 0.503 | 0.338 | 0.0454 | 0.0035 | -0.0431 | 0.773
8 | CCN1CCN(Cc2ccc(Nc3ncc(F)c(-c4cc(F)c5nc(C)n(C(C)C)c5c4)n3)nc2)CC1 (max 10 µM) | -0.763 | -0.342 | -0.603 | -0.288 | -0.268 | 0.0156 | -0.105 | 0.301 | 0.393 | 0.146 | -0.0412 | -0.505 | -0.65
9 | CNc1nc(-c2ccc3c(N)n[nH]c3c2)cc(N2C[C@@H](C(=O)NC3CCCCC3)CC[C@H]2C)n1 (max 10 µM) | 0.166 | -0.417 | 0.166 | 0.531 | 0.295 | 0.641 | 0.572 | 0.151 | 0.8 | 0.696 | 0.164 | 0.733 | 0.545
10 | CO[C@@H](C)Cn1c(=O)n(C)c2cnc3ccc(-c4cncc(C(C)(C)O)c4)cc3c21 (max 10 µM) | -0.855 | -0.988 | -0.663 | -0.211 | -0.248 | 0.0519 | 0.0943 | -0.844 | 0.133 | 0.0211 | -0.289 | -0.346 | 0.0061
11 | Cc1nn(C)c(COc2ccc(N3CCN(S(=O)(=O)N(C)C)CC3)cc2)c1-c1cccc2c(CCCOc3cccc4ccccc34)c(C(=O)O)n(CCN3CCOCC3)c12 (max 10 µM) | -0.463 | 0.985 | 0.991 | 0.93 | 0.877 | -0.422 | -0.164 | 0.69 | 0.993 | 0.547 | 0.575 | 0.884 | 0.873
12 | CN(C)CC[C@H](CSc1ccccc1)Nc1ccc(S(=O)(=O)NC(=O)c2ccc(N3CCN(Cc4ccccc4-c4ccc(Cl)cc4)CC3)cc2)cc1[N+](=O)[O-] [ABT-737] (max 10 µM) | -0.0028 | 0.844 | 0.329 | 0.142 | 0.727 | 0.495 | -0.0149 | 0.181 | 0.979 | 0.418 | 0.589 | 0.496 | -0.678
13 | C=CCn1c(=O)c2cnc(Nc3ccc(N4CCN(C)CC4)cc3)nc2n1-c1cccc(C(C)(C)O)n1 [AZD1775] (max 10 µM) | -0.813 | -0.348 | -0.598 | -0.492 | -0.0913 | -0.17 | 0.0471 | -0.398 | -0.21 | -0.259 | 0.162 | -0.416 | -0.32
14 | CNC(=O)c1cccc(-c2ccc3c(N4CCOC[C@@H]4C)nc(N4CCOC[C@@H]4C)nc3n2)c1 [AZD2014] (max 10 µM) | -0.315 | -0.756 | -0.585 | 0.23 | -0.0281 | 0.143 | 0.0847 | -0.421 | 0.147 | 0.338 | -0.0708 | 0.0889 | 0.0715
15 | NC1(C(=O)N[C@@H](CCO)c2ccc(Cl)cc2)CCN(c2nc[nH]c3nccc2-3)CC1 [AZD5363] (max 10 µM) | -0.152 | -0.38 | 0.485 | 0.545 | 0.476 | 0.564 | 0.773 | 0.0474 | 0.617 | 0.516 | 0.179 | 0.272 | 0.766
